PubChem BioAssay (NCI)
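96-well plates; 48 h exposure; 5 concentrations. Endpoints by linear interpolation between flanking doses. Not reached: highest tested concentration assigned. The concentration for 50% growth inhibition is given as GI50. Definition used: TGI = concentration required for complete inhibition of growth.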

Experiments:
Assay in all cases: inhibition of tumour cell growth, NCI panel, 48 h
[1] = test system: 786-0 renal
[2] = test system: A498 renal
[3] = test system: A549 NSCLC
[4] = test system: ACHN renal
[5] = test system: BT-549 breast
[6] = test system: CAKI-1 renal
[7] = test system: CCRF-CEM leukemia
[8] = test system: COLO 205 colon
[9] = test system: DU-145 prostate
[10] = test system: EKVX NSCLC
[11] = test system: HCC-2998 colon
[12] = test system: HCT-116 colon
[13] = test system: HCT-15 colon
[14] = test system: HL-60(TB) leukemia
[15] = test system: HOP-62 NSCLC
[16] = test system: HOP-92 NSCLC
[17] = test system: HS 578T breast
[18] = test system: HT29 colon
[19] = test system: IGROV1 ovarian
[20] = test system: K-562 leukemia
[21] = test system: KM12 colon
[22] = test system: LOX IMVI melanoma
[23] = test system: M14 melanoma
[24] = test system: MALME-3M melanoma
[25] = test system: MCF7 breast
[26] = test system: MDA-MB-231 breast
[27] = test system: MDA-MB-435
[28] = test system: MOLT-4 leukemia
[29] = test system: NCI-H226 lung
[30] = test system: NCI-H23 lung
[31] = test system: NCI-H460 lung
[32] = test system: NCI-H522 lung
[33] = test system: NCI/ADR-RES ovarian
[34] = test system: OVCAR-3 ovarian
[35] = test system: OVCAR-4 ovarian
[36] = test system: OVCAR-5 ovarian
[37] = test system: OVCAR-8 ovarian
[38] = test system: PC-3 prostate
[39] = test system: RPMI-8226 leukemia
[40] = test system: RXF 393 renal
[41] = test system: SF-268 CNS
[42] = test system: SF-295 CNS
[43] = test system: SF-539 CNS
[44] = test system: SK-MEL-2 melanoma
[45] = test system: SK-MEL-28 melanoma
[46] = test system: SK-MEL-5 melanoma
[47] = test system: SK-OV-3 ovarian
[48] = test system: SN12C renal
[49] = test system: SNB-19 CNS
[50] = test system: SNB-75 CNS
[51] = test system: SR leukemia
[52] = test system: SW-620 colon
[53] = test system: T-47D breast
[54] = test system: TK-10 renal
[55] = test system: U251 CNS
[56] = test system: UACC-257 melanoma
[57] = test system: UACC-62 melanoma
[58] = test system: UO-31 renal

Compound `N[C@H]1C[C@@H]1c1ccc(-c2cccc(O)c2)cc1` has a GI50 [1] of 29.6 µM, a TGI [1] of over 100 µM and a GI50 [2] of 14.8 µM. It also gave a TGI [2] of 69.6 µM, a GI50 [3] of 50.6 µM and a TGI [3] of over 100 µM. For the same compound, the GI50 [4] was 23.2 µM, the TGI [4] was 93.3 µM and the GI50 [5] was 22.4 µM. The TGI [5] was over 100 µM, the GI50 [6] was 22.4 µM and the TGI [6] was 82.9 µM. It also gave a GI50 [7] of 29.3 µM, a TGI [7] of over 100 µM and a GI50 [8] of 29.2 µM. The TGI [8] was over 100 µM, the GI50 [9] was 42.2 µM and the TGI [9] was over 100 µM. The GI50 [10] was 27.2 µM, the TGI [10] was over 100 µM and the GI50 [11] was 20 µM. For the same compound, the TGI [11] was 67.2 µM, the GI50 [12] was 25 µM and the TGI [12] was over 100 µM. It also gave a GI50 [13] of 26.7 µM, a TGI [13] of over 100 µM and a GI50 [14] of 17.6 µM. It also gave a TGI [14] of 44.9 µM, a GI50 [15] of 28.3 µM and a TGI [15] of over 100 µM. For the same compound, the GI50 [16] was 11.9 µM, the TGI [16] was 72 µM and the GI50 [17] was 22.8 µM. It also gave a TGI [17] of over 100 µM, a GI50 [18] of 34.7 µM and a TGI [18] of over 100 µM. It also gave a GI50 [19] of 30.8 µM, a TGI [19] of over 100 µM and a GI50 [20] of 21 µM. For the same compound, the TGI [20] was 76.1 µM, the GI50 [21] was 29.2 µM and the TGI [21] was 93.4 µM. The GI50 [22] was 14.8 µM, the TGI [22] was 29.7 µM and the GI50 [23] was 15.7 µM. The TGI [23] was 36.3 µM, the GI50 [24] was 14.2 µM and the TGI [24] was 44.9 µM. For the same compound, the GI50 [25] was 22.9 µM, the TGI [25] was over 100 µM and the GI50 [26] was 17.6 µM. The TGI [26] was 44 µM, the GI50 [27] was 22.6 µM and the TGI [27] was 61.6 µM. The GI50 [28] was 22.3 µM, the TGI [28] was 74.5 µM and the GI50 [29] was over 100 µM. It also gave a TGI [29] of over 100 µM, a GI50 [30] of 37.6 µM and a TGI [30] of over 100 µM. For the same compound, the GI50 [31] was 45.9 µM, the TGI [31] was over 100 µM and the GI50 [32] was 15 µM. For the same compound, the TGI [32] was 35.1 µM, the GI50 [33] was 36.8 µM and the TGI [33] was over 100 µM. For the same compound, the GI50 [34] was 38.9 µM, the TGI [34] was over 100 µM and the GI50 [35] was 28.9 µM. The TGI [35] was over 100 µM, the GI50 [36] was 37.5 µM and the TGI [36] was over 100 µM. The GI50 [37] was 34 µM, the TGI [37] was over 100 µM and the GI50 [38] was 26.4 µM. It also gave a TGI [38] of over 100 µM, a GI50 [39] of 19 µM and a TGI [39] of 63 µM. It also gave a GI50 [40] of 17.1 µM, a TGI [40] of over 100 µM and a GI50 [41] of 27.5 µM. The TGI [41] was over 100 µM, the GI50 [42] was 28.1 µM and the TGI [42] was over 100 µM. It also gave a GI50 [43] of 24.2 µM, a TGI [43] of 98.4 µM and a GI50 [44] of 19 µM. For the same compound, the TGI [44] was 52.6 µM, the GI50 [45] was 24.3 µM and the TGI [45] was 69.2 µM. It also gave a GI50 [46] of 15.5 µM, a TGI [46] of 30.2 µM and a GI50 [47] of 25.1 µM. For the same compound, the TGI [47] was over 100 µM, the GI50 [48] was 34.5 µM and the TGI [48] was over 100 µM. It also gave a GI50 [49] of 53.8 µM, a TGI [49] of over 100 µM and a GI50 [50] of 11.7 µM. The TGI [50] was 49 µM, the GI50 [51] was 24.7 µM and the TGI [51] was 65.2 µM. The GI50 [52] was 32.1 µM, the TGI [52] was over 100 µM and the GI50 [53] was 23 µM. For the same compound, the TGI [53] was over 100 µM, the GI50 [54] was 31.1 µM and the TGI [54] was over 100 µM. For the same compound, the GI50 [55] was 34.7 µM, the TGI [55] was over 100 µM and the GI50 [56] was 23.4 µM. For the same compound, the TGI [56] was 63.8 µM, the GI50 [57] was 15.9 µM and the TGI [57] was 35 µM. It also gave a GI50 [58] of 17.7 µM and a TGI [58] of 82.4 µM.
Work on `C=CCNCCN1C(=O)c2ccc3c4c(ccc(c24)C1=O)C(=O)N(CCNCC=C)C3=O` yielded a GI50 [1] of 1.11 µM, a TGI [1] of 2.8 µM and a GI50 [2] of 1.14 µM. It also gave a TGI [2] of 3.57 µM, a GI50 [3] of 0.418 µM and a TGI [3] of 1.67 µM. The GI50 [4] was 0.407 µM, the TGI [4] was 2.52 µM and the GI50 [5] was 2.91 µM. It also gave a TGI [5] of 10.2 µM, a GI50 [6] of 0.63 µM and a TGI [6] of 1.84 µM. For the same compound, the GI50 [7] was 0.708 µM, the TGI [7] was 3.44 µM and the GI50 [8] was 0.16 µM. For the same compound, the TGI [8] was 0.407 µM, the GI50 [9] was 0.663 µM and the TGI [9] was 1.36 µM. It also gave a GI50 [10] of 0.557 µM, a TGI [10] of 1.51 µM and a GI50 [11] of 0.766 µM. It also gave a TGI [11] of 1.55 µM, a GI50 [12] of 0.5 µM and a TGI [12] of 50 µM. The GI50 [13] was 0.457 µM, the TGI [13] was 1.66 µM and the GI50 [14] was 0.86 µM. The TGI [14] was 2.21 µM, the GI50 [15] was 0.712 µM and the TGI [15] was 2.7 µM. The GI50 [16] was 1.81 µM, the TGI [16] was 5.56 µM and the GI50 [17] was 1.76 µM. The TGI [17] was 8.71 µM, the GI50 [18] was 0.193 µM and the TGI [18] was 0.769 µM. It also gave a GI50 [19] of 0.504 µM, a TGI [19] of 1.67 µM and a GI50 [20] of 0.534 µM. For the same compound, the TGI [20] was 3.24 µM, the GI50 [21] was 0.59 µM and the TGI [21] was 1.82 µM. It also gave a GI50 [22] of 0.728 µM, a TGI [22] of 1.77 µM and a GI50 [23] of 0.918 µM. It also gave a TGI [23] of 1.8 µM, a GI50 [24] of 0.343 µM and a TGI [24] of 0.996 µM. For the same compound, the GI50 [25] was 0.225 µM, the TGI [25] was 0.983 µM and the GI50 [26] was 1.26 µM. The TGI [26] was 4.71 µM, the GI50 [27] was 0.745 µM and the TGI [27] was 1.7 µM. The GI50 [28] was 0.427 µM, the TGI [28] was 1.63 µM and the GI50 [29] was 0.493 µM. The TGI [29] was 1.46 µM, the GI50 [30] was 0.938 µM and the TGI [30] was 2.1 µM. The GI50 [31] was 0.258 µM, the TGI [31] was 1.73 µM and the GI50 [32] was 0.616 µM. The TGI [32] was 1.54 µM, the GI50 [33] was 0.995 µM and the TGI [33] was 5.29 µM. The GI50 [34] was 0.99 µM, the TGI [34] was 3.27 µM and the GI50 [35] was 0.315 µM. The TGI [35] was 1 µM, the GI50 [36] was 1.04 µM and the TGI [36] was 3.09 µM. The GI50 [37] was 0.421 µM, the TGI [37] was 4 µM and the GI50 [38] was 1.34 µM. For the same compound, the TGI [38] was 16.6 µM, the GI50 [39] was 0.953 µM and the TGI [39] was 4.23 µM. It also gave a GI50 [40] of 0.696 µM, a TGI [40] of 1.48 µM and a GI50 [41] of 0.753 µM. For the same compound, the TGI [41] was 3.54 µM, the GI50 [42] was 0.397 µM and the TGI [42] was 1.28 µM. For the same compound, the GI50 [43] was 0.847 µM, the TGI [43] was 1.96 µM and the GI50 [44] was 0.891 µM. It also gave a TGI [44] of 1.74 µM, a GI50 [45] of 1.18 µM and a TGI [45] of 2.68 µM. It also gave a GI50 [46] of 0.584 µM, a TGI [46] of 1.2 µM and a GI50 [47] of 1.05 µM. For the same compound, the TGI [47] was 2.8 µM, the GI50 [48] was 0.489 µM and the TGI [48] was 1.26 µM. The GI50 [49] was 0.65 µM, the TGI [49] was 1.35 µM and the GI50 [50] was 0.874 µM. For the same compound, the TGI [50] was 1.67 µM, the GI50 [51] was 0.811 µM and the TGI [51] was 2.92 µM. It also gave a GI50 [52] of 0.402 µM, a TGI [52] of 1.63 µM and a GI50 [53] of 1.2 µM. It also gave a TGI [53] of 2.65 µM, a GI50 [54] of 1.11 µM and a TGI [54] of 3.43 µM. The GI50 [55] was 0.526 µM, the TGI [55] was 1.26 µM and the GI50 [56] was 0.786 µM. For the same compound, the TGI [56] was 1.49 µM, the GI50 [57] was 0.895 µM and the TGI [57] was 1.68 µM. The GI50 [58] was 0.716 µM and the TGI [58] was 1.69 µM.
